SMILES strings stand for the structures.

For the first test, the target named is T1, human URAT1 (Homo sapiens, UniProt Q96S37).
T1 construct: Full-length cDNA of human URAT1 (hURAT1); host or cells: HEK 293 cells, stably transfected and selected by Geneticin resistance
T1 sequence (Q96S37 1-553): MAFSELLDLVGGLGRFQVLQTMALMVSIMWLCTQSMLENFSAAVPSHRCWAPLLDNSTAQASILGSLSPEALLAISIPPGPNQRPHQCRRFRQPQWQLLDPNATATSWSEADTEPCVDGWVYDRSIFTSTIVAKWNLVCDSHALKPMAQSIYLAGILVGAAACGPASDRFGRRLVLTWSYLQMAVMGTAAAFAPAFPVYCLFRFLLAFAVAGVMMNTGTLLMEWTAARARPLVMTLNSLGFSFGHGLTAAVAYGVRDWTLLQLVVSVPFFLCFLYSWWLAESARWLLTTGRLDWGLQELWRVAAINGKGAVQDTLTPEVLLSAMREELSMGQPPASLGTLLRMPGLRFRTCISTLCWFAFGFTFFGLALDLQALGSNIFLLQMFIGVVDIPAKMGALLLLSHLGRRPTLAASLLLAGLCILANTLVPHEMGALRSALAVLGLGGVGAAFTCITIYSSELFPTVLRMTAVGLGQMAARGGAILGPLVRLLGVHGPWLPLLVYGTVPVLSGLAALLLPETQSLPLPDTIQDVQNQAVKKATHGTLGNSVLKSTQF
As to the kind of experiment: Test for inhibition of uric acid transport using human URAT1-expressing cells. Format: cell-based. The note with it: HEK 293 cells expressing human URAT1; 14C-labeled uric acid 25 μM; uptake 37° C. for 5 min; read-out: Inhibitory activity (IC50, concentration at which the uric acid transport rate is inhibited by 50%). Here is the method: Test for Inhibition of Uric Acid Transport Using Human URAT1-Expressing Cells
A test compound was dissolved in DMSO (produced by Sigma) to a concentration of 20 mM and was subsequently used by adjusting the concentration to a desired value for use.
Full-length cDNA of human URAT1 (hURAT1) (produced by OriGene Technologies, Inc., NCBI Reference Sequence: NM-144585) was subcloned into an expression vector, pCMV6-Kan/Neo (produced by OriGene Technologies, Inc.), and human URAT1 genes were transfected into human embryonic kidney-derived cells (HEK 293 cells) by a liposome method using Lipofectamine 2000 (produced by Invitrogen Corporation), whereupon HEK 293 cells expressing human URAT1 genes were selected on the basis of Geneticin resistance. Functional expression of human URAT1 genes was confirmed by using transport of ^14C-labeled uric acid into the cells as an index.
The HEK 293 cells expressing human URAT1 were seeded in a 24-well cell culture dish to a density of 3×10^5 cells/mL/well and were cultured in Dulbecco's modified Eagle's medium (D-MEM medium) containing 10% fetal bovine serum at 37° C. for 2 days. Thereafter, the following test for inhibition of uric acid transport was performed.
After the medium was removed by aspiration from each well, the cells were replaced with a solution obtained by substituting NaCl in Hanks' Balanced Salt Solution (HBSS) with Na gluconate (hereinafter, HBSS/Na-gluconate), and the cells were preincubated at 37° C. for about 10 minutes. After removing the HBSS/Na-gluconate by aspiration, a ^14C-uric acid solution containing various concentrations of the Example compound listed in Table 4 and a radioactive ligand (^14C-labeled uric acid; final concentration 25 μM) was added, and an uptake reaction was carried out by incubating at 37° C. for 5 min. After the reaction, the ^14C-labeled uric acid was removed by aspiration and the cells were washed three times with ice-cooled HBSS. The HEK 293 cells expressing human URAT1 were lysed in a 0.2 mol/L aqueous NaOH solution (hereafter, the cell sample) and sampled from the well. The cell sample and a liquid scintillation cocktail, ULTIMA GOLD (produced by PerkinElmer, Inc.) were mixed, and the radioactivity was measured by a liquid scintillation counter (manufactured by Beckman Coulter, Inc.).
The uric acid transport rate of the Example compound at each concentration (% of control uptake) was calculated relative to the radioactivity (radioactivity in human URAT1 expressing HEK 293 cells without addition of the Example compound (DMSO addition)) showing URAT1-specific uric acid transport as 100%, and the concentration (IC50) of the Example compound at which the uric acid transport rate is inhibited by 50% was determined. In addition, the symbols (*, **, and ***) in the table represent the following inhibitory activity values: • IC50≦0.2 μM: *** • 0.2 μM<IC50≦2 μM: ** • 2 μM<IC50≦20 μM: *
As to `Cc1nc(-c2cnccn2)n(Cc2cc(Cl)ccc2Cl)c1C(=O)O` [Compound A1, 1-(2,5-dichlorobenzyl)-4-methyl-2-(pyrazin-2-yl)-1H-imidazole-5-carboxylic acid], the IC50 was at most 0.2 µM.
For the compound `Cc1cncc(-c2nc(C)c(C(=O)O)n2Cc2cc(Cl)ccc2Cl)n1` [Compound A2, 1-(2,5-dichlorobenzyl)-4-methyl-2-(6-methylpyrazin-2-yl)-1H-imidazole-5-carboxylic acid], the IC50 is at most 0.2 µM.
`CCc1cncc(-c2nc(C)c(C(=O)O)n2Cc2cc(Cl)ccc2Cl)n1` [Compound A3, 1-(2,5-dichlorobenzyl)-2-(6-ethylpyrazin-2-yl)-4-methyl-1H-imidazole-5-carboxylic acid]: the IC50 is at most 0.2 µM.
For `Cc1nc(-c2cncc(-c3ccccc3)n2)n(Cc2cc(Cl)ccc2Cl)c1C(=O)O` [Compound A4, 1-(2,5-dichlorobenzyl)-4-methyl-2-(6-phenylpyrazin-2-yl)-1H-imidazole-5-carboxylic acid], the IC50 was at most 0.2 µM.
`COc1cncc(-c2nc(C)c(C(=O)O)n2Cc2cc(Cl)ccc2Cl)n1` [Compound A5, 1-(2,5-dichlorobenzyl)-2-(6-methoxypyrazin-2-yl)-4-methyl-1H-imidazole-5-carboxylic acid]: the IC50 was at most 0.2 µM.
For the compound `Cc1nc(-c2cncc(Oc3ccccc3)n2)n(Cc2cc(Cl)ccc2Cl)c1C(=O)O` [Compound A6, 1-(2,5-dichlorobenzyl)-4-methyl-2-(6-phenoxypyrazin-2-yl)-1H-imidazole-5-carboxylic acid], the IC50 is at most 0.2 µM.
With `CCOc1cncc(-c2nc(C)c(C(=O)O)n2Cc2cc(Cl)ccc2Cl)n1` [Compound A7, 1-(2,5-dichlorobenzyl)-2-(6-ethoxypyrazin-2-yl)-4-methyl-1H-imidazole-5-carboxylic acid], the IC50 was at most 0.2 µM.
The same measure, in the same setting: with `Cc1nc(-c2cncc(C#N)n2)n(Cc2cc(Cl)ccc2Cl)c1C(=O)O` [Compound A8, 2-(6-cyanopyrazin-2-yl)-1-(2,5-dichlorobenzyl)-4-methyl-1H-imidazole-5-carboxylic acid] the figure was at most 0.2 µM.
For the compound `Cc1nc(-c2cncc(C(C)C)n2)n(Cc2cc(Cl)ccc2Cl)c1C(=O)O` [Compound A9, 1-(2,5-dichlorobenzyl)-2-(6-isopropylpyrazin-2-yl)-4-methyl-1H-imidazole-5-carboxylic acid], the IC50 was at most 0.2 µM.
On to `Cc1nc(-c2cncc(C3CC3)n2)n(Cc2cc(Cl)ccc2Cl)c1C(=O)O` [Compound A10, 2-(6-cyclopropylpyrazin-2-yl)-1-(2,5-dichlorobenzyl)-4-methyl-1H-imidazole-5-carboxylic acid], for which the IC50 was at most 0.2 µM.
In the case of `Cc1nc(-c2cnccn2)n(Cc2cc(Cl)sc2Cl)c1C(=O)O` [Compound A11, 1-((2,5-dichlorothiophene-3-yl)methyl)-4-methyl-2-(pyrazin-2-yl)-1H-imidazole-5-carboxylic acid], the IC50 is at most 0.2 µM.
As for `Cc1cncc(-c2nc(C)c(C(=O)O)n2Cc2cc(Cl)sc2Cl)n1` [Compound A12, 1-((2,5-dichlorothiophene-3-yl)methyl)-4-methyl-2-(6-methylpyrazin-2-yl)-1H-imidazole-5-carboxylic acid], the IC50 was at most 0.2 µM.
With `COc1cccc(F)c1Oc1cncc(-c2nc(C)c(C(=O)O)n2Cc2cc(Cl)ccc2Cl)n1` [Compound A13], the IC50 fell in the range of 0.2 to 2 µM.
The same measure, in the same setting: with `COc1cccc(F)c1Oc1cncc(-c2nc(C)c(C(=O)O)n2Cc2ccccc2)n1` [Compound A14, 1-benzyl-2-(6-(2-fluoro-6-methoxyphenoxy)pyrazin-2-yl)-4-methyl-1H-imidazole-5-carboxylic acid] the figure was at most 0.2 µM; with `O=C(O)c1ccc(-c2cnccn2)n1Cc1cc(Cl)ccc1Cl` [Compound A15, 1-(2,5-dichlorobenzyl)-2-(pyrazin-2-yl)-1H-pyrrole-5-carboxylic acid], at most 0.2 µM.

A further test has as its system cebus apella. The test can be described thus: Testing drug efficacy in Cebus apella (uric acid excretion rate). Format: in vivo. The conditions noted are these: 3 mg/kg to 30 mg/kg in 0.5% methylcellulose, from the nasal cavity to the stomach. Here is the method: Testing Drug Efficacy in Cebus Apella A test compound (3 mg/kg to 30 mg/kg) dispersed in a 0.5% methylcellulose solution was administered to cebus apella from the nasal cavity to the stomach using a disposable catheter and a syringe barrel. Blood samples were taken before administration and 30 minutes, 1 hour, 2 hours, 4 hours, 8 hours, 12 hours, and 24 hours after administration; and urine samples were collected for the time intervals of from immediately after to 4 hours after administration, from 4 hours to 8 hours after administration, from 8 hours to 16 hours after administration, and from 16 hours to 24 hours after administration. Concentrations of uric acid and creatinine in the blood and urine samples collected were measured by an automatic analyzer (JEOL Ltd.). Uric acid and creatinine were measured respectively using L-type Wako UA•F (Wako Pure Chemicals Industries, Ltd.) and L-type Creatinine F (Wako Pure Chemicals Industries, Ltd.). Uric acid clearance was calculated from the uric acid concentrations in blood and urine and, similarly, creatinine clearance was calculated from the creatinine concentrations. Based on these values, the uric acid excretion rate was determined according to the following equation: Uric acid excretion rate (%)=(uric acid clearance/creatinine clearance)×100
`Cc1nc(-c2cnccn2)n(Cc2cc(Cl)sc2Cl)c1C(=O)O` [Compound A11, 1-((2,5-dichlorothiophene-3-yl)methyl)-4-methyl-2-(pyrazin-2-yl)-1H-imidazole-5-carboxylic acid]: the “activity to promote uric acid excretion” value is on record as “excellent activity”.

For the origin of these results see US9856237B2, “Pyrazine derivatives” (TEIJIN PHARMA LIMITED, priority 2014, dated 2018).
